Legend:
in vitro = conditions: human, DPBS pH 7.4, 120 min, 37° C., diphenhydramine 100 μM, atenolol 100 μM, caffeine 50 μM co-dosed
Method: (§1) EpiAirway™ tissues, plated in 24-well plates, and accompanying culture medium and assay buffer solutions, were purchased from MatTek Corporation (Ashland, Mass.). According to the EpiAirway™ AIR-100 Use Protocol provided by MatTek, the tissues were returned to culture immediately upon receipt. In a tissue culture hood, using sterile technique, 1.0 mL of cold medium (AIR-100-ASY) was dispensed into each well of the 6-well plate (n=3) and one tissue insert was transferred to each of the wells. The apical surface of the tissue was exposed to the air (no medium was added to the insert). The tissues were equilibrated overnight at 37° C. in a 5% CO2 incubator. The culture medium was then replaced with fresh, pre-warmed medium until use.
(§2) The unidirectional permeation experiment was conducted according to protocol 18APCIP2 and relevant SOPs of Absorption Systems. Prior to the permeability assay, the culture medium in the plate was aspirated; and ˜1 mL of Dulbecco's phosphate-buffered saline (DPBS) was added to the well to remove any remaining residue of culture medium from the underside of the insert. The tissues were transferred to a 24-well plate with DPBS (750 μL) in each well as receiver, and dosing solution (400 μL) was added to each insert. A 100 μL aliquot was immediately removed as the 0-minute donor sample. Receiver samples (200 μL) were collected at 30, 60, and 120 minutes, replaced with an equal volume of fresh pre-warmed blank buffer at 30 and 60 minutes. The donor side was sampled (100 μL) at 0 and 120 minutes. The assay plate was placed in a humidified CO2 incubator at 37° C. during the assay period.
(§3) After 120 minutes, the tissues were rinsed with DPBS and gently dried with tissue wipes after aspiration of the assay buffer. The insert membranes with tissues attached were carefully removed from the insert apparatus, placed in a tared centrifuge tube, and weighed.
(§4) The apparent permeability coefficient (Papp) and recovery were calculated as follows: Papp=(dCr/dt)×Vr/(A×Cini) (1) Recovery (%)=[((Cr,final×Vr)+(Cd,final×Vd))/(Cini×Vd)]×100 (2) Recovery (%)=[((Cr,final×Vr)+(Cd,final×Vd)+(Tissue Accumulation))/(Cini×Vd)]×100 (3)
(§5) where, • dCr/dt is the slope of cumulative receiver concentration vs. time in μM s^−1; • Vr is the volume of the receiver compartment; • Vd is the volume of the donor compartment; • A is the diffusional area of the membrane; • Cini is the donor concentration at 0 minutes in μM; • CD, final is the donor concentration at 120 minutes in μM; • Cr, final is the receiver concentration at 120 minutes in μM.
(§6) With DPBS, pH 7.4 used on both the donor and receiver sides, permeability was initiated with addition of 0.4 mL of dosing solution into the inserts and of 0.75 mL of blank buffer into the wells of the assay plate. The assay was performed for 120 minutes in a humidified incubator at 37° C.

EpiAirway tissues = EpiAirway tissues after 120 min, 100 μM
Method: as §1, §2, §3, §4, §5, §6

rhinovirus colds = conditions: intranasal, phosphate buffer vehicle, patients; Gaffney et al. 1987; cited from earlier work

Compound	Papp A→B at 120 min (in vitro; pH 7.4, Papp (10^−6 cm/s) Average ± SD, apical dosing, average)	Papp A→B at 120 min (in vitro; pH 7.4, Papp (10^−6 cm/s) R1, apical dosing, replicate R1)	Papp A→B at 120 min (in vitro; pH 7.4, Papp (10^−6 cm/s) R2, apical dosing, replicate R2)	Papp A→B at 120 min (in vitro; pH 7.4, Papp (10^−6 cm/s) R3, apical dosing, replicate R3)	Tissue Accumulation (nmol/mg) Average ± SD (EpiAirway tissues; average)	Tissue Accumulation (nmol/mg) R1 (EpiAirway tissues; replicate R1)	Tissue Accumulation (nmol/mg) R3 (EpiAirway tissues; replicate R3)	therapeutic effect in reducing signs and symptoms of rhinovirus colds (rhinovirus colds)
Cn1c(=O)c2c(ncn2C)n(C)c1=O [Caffeine, caffeine]	29.1 ×10⁻⁶ cm/s	30.9 ×10⁻⁶ cm/s	28.2 ×10⁻⁶ cm/s	28.2 ×10⁻⁶ cm/s				
CN(C)CCOC(c1ccccc1)c1ccccc1 [Diphenhydramine, diphenhydramine]					0.212 ± 0.0222 nmol/mg	0.188 nmol/mg	0.218 nmol/mg	no therapeutic effect
